ChEMBL document CHEMBL1909046, “DrugMatrix in vitro pharmacology data”

Legend:
[1] = target: T1, C-X-C chemokine receptor type 1 (Homo sapiens, UniProt P25024); further: in other assays of this panel Not Active means under 50% inhibition at 10 µM
T1 sequence (P25024 whole entry): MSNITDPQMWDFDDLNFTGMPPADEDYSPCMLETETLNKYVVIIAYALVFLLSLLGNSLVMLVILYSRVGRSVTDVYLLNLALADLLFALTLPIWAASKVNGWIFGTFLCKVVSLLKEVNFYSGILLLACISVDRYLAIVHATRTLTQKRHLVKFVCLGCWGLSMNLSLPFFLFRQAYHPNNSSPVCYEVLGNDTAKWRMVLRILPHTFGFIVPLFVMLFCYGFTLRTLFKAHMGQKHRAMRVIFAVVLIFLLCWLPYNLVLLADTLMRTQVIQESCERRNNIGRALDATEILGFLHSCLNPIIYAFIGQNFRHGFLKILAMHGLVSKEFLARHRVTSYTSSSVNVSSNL

[2] = DRUGMATRIX: GABAA, Flunitrazepam, Central radioligand binding (ligand: [3H] Flunitrazepam); type: cell membranes, Rattus norvegicus, Wistar, Brain, Membrane; conditions: Not Active = under 50% inhibition at 10 µM
[3] = target: T2, Muscarinic acetylcholine receptor M5 (Homo sapiens, UniProt P08912); type: cell membranes, CHO-K1, Membrane; conditions: cho-k1; further: in other assays of this panel Not Active means under 50% inhibition at 10 µM
T2 sequence (P08912 whole entry): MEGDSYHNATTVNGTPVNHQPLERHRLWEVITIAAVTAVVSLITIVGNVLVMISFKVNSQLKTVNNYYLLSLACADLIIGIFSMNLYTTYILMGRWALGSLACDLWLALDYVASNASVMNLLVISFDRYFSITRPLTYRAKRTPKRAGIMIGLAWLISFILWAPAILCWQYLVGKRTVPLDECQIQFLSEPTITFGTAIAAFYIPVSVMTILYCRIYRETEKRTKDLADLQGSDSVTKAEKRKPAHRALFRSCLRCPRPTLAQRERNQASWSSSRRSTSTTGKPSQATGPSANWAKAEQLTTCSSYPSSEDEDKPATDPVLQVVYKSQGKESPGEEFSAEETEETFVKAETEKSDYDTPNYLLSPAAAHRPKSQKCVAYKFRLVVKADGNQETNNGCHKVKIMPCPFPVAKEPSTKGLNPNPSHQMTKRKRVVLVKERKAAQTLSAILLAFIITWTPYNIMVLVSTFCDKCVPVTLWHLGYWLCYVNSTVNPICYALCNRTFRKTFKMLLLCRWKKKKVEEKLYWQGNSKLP

[4] = target: T3, Neuropeptide Y receptor type 2 (Homo sapiens, UniProt P49146); type: cell membranes, KAN-TS, Membrane; conditions: kan-ts; further: in other assays of this panel Not Active means under 50% inhibition at 10 µM
T3 sequence (P49146 whole entry): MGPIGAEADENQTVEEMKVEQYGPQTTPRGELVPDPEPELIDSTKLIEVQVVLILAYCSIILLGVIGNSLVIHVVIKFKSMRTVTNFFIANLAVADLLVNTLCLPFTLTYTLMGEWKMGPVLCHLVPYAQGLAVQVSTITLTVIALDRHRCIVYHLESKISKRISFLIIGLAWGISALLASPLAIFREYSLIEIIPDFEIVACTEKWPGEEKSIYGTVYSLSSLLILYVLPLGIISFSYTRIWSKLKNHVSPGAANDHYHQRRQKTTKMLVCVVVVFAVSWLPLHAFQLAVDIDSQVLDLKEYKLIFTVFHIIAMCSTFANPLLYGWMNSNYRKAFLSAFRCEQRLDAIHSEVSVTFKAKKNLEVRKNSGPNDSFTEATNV

[5] = target: T4, Nitric oxide synthase, inducible (Mus musculus, UniProt P29477); parameters: species or system Escherichia coli;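 further: inhibition of iNOS enzyme activity measured with L-arginine as substrate; in other assays of this panel Not Active means under 50% inhibition at 10 µM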
T4 sequence (P29477 whole entry): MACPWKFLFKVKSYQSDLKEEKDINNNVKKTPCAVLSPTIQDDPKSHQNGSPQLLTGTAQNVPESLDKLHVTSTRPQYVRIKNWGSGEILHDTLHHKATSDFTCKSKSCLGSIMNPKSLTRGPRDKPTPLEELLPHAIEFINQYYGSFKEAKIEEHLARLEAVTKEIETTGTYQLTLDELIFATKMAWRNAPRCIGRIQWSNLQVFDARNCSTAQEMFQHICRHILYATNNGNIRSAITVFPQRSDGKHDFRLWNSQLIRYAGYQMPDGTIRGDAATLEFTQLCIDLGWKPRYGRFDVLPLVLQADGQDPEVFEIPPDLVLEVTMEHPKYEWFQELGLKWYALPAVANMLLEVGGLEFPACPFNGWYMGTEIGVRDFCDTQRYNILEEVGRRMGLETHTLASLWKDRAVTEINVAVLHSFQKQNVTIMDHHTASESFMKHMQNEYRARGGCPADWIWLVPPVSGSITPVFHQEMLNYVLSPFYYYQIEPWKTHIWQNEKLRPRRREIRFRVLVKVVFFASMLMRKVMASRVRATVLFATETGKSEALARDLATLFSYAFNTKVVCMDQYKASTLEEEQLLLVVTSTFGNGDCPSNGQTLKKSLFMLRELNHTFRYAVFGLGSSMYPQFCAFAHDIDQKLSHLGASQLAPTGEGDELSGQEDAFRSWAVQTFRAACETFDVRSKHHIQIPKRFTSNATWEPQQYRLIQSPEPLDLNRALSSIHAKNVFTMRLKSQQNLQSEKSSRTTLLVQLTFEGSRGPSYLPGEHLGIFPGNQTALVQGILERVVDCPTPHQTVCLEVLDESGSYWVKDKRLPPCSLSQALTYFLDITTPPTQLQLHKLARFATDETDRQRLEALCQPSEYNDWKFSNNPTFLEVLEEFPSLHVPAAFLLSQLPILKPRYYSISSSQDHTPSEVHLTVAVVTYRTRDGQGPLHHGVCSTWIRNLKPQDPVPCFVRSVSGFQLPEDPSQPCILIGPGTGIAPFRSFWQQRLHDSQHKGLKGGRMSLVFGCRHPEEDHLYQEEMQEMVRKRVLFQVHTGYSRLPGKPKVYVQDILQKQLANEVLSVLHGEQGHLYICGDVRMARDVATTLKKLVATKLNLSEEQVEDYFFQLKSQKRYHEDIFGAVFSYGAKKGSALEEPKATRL

[6] = DRUGMATRIX: Phorbol Ester radioligand binding (ligand: [3H] PDBu); type: cell membranes, Mus musculus, ICR, Brain, Membrane; conditions: Not Active = under 50% inhibition at 10 µM

CCCCNc1ccc(C(=O)OCCN(C)C)cc1 [TETRACAINE]
Not Active: IC50 [1] | IC50 [2] | Ki [2] | IC50 [3] | IC50 [4] | IC50 [5] | IC50 [6] | Ki [6]

Cn1c(=O)c2nc[nH]c2n(C)c1=O.O [THEOPHYLLINE]
Not Active: IC50 [1] | IC50 [2] | Ki [2] | IC50 [3] | IC50 [4] | IC50 [5] | IC50 [6] | Ki [6]

CS(=O)(=O)c1ccc([C@@H](O)[C@@H](CO)NC(=O)C(Cl)Cl)cc1 [THIAMPHENICOL]
Not Active: IC50 [1] | IC50 [2] | Ki [2] | IC50 [3] | IC50 [4] | IC50 [5] | IC50 [6] | Ki [6]

CCN(CC)CCNC(=O)c1cc(S(C)(=O)=O)ccc1OC [TIAPRIDE]
Not Active: IC50 [1] | IC50 [2] | Ki [2] | IC50 [3] | IC50 [4] | IC50 [5] | IC50 [6] | Ki [6]

Clc1ccccc1CN1CCc2sccc2C1 [TICLOPIDINE]
Not Active: IC50 [1] | IC50 [2] | Ki [2] | IC50 [3] | IC50 [4] | IC50 [5] | IC50 [6] | Ki [6]

NC1CCN(c2nc3c(cc2F)c(=O)c(C(=O)O)cn3-c2ccc(F)cc2F)C1 (stereo not drawn) [TOSUFLOXACIN]
Not Active: IC50 [1] | IC50 [2] | Ki [2] | IC50 [3] | IC50 [4] | IC50 [5] | IC50 [6] | Ki [6]

O=C(Nc1ccc(Br)cc1)c1cc(Br)cc(Br)c1O [TRIBROMSALAN]
Not Active: IC50 [1] | IC50 [2] | Ki [2] | IC50 [3] | IC50 [4] | IC50 [5] | IC50 [6] | Ki [6]

CC(c1cc2ccccc2s1)N(O)C(N)=O (stereo not drawn) [ZILEUTON]
Not Active: IC50 [1] | IC50 [2] | Ki [2] | IC50 [3] | IC50 [4] | IC50 [5] | IC50 [6] | Ki [6]

MANGANESE CHLORIDE ANHYDROUS
Not Active: IC50 [1] | Ki [1] | IC50 [2] | Ki [2] | IC50 [3] | Ki [3] | IC50 [4] | Ki [4] | IC50 [5] | Ki [5] | IC50 [6] | Ki [6]

SODIUM ORTHOVANAD
Not Active: IC50 [1] | Ki [1] | IC50 [2] | Ki [2] | IC50 [3] | Ki [3] | IC50 [4] | Ki [4] | IC50 [5] | Ki [5] | IC50 [6] | Ki [6]
